Reference: patent publication US20260327211A1, “MODULATORS OF A POTASSIUM CHANNEL AND OF TRPV1 CHANNEL AND USES THEREOF” (Bsense Bio Therapeutics Ltd., priority 2023, published 2026)

Assays:
hKv7.2/3 = target: T1, hKv7.2/3 (Homo sapiens, UniProt O43525+O43526); experiment: Kv7.2/7.3 whole-cell electrophysiology in CHO cells; format: cell-based; conditions: 100 nM, −40 mV, N=4, read-out: Kv7.2/3 current activation
T1 construct: host or cells: CHO
Excerpt: (§1) Extracellular (Bath) solution: The solution was composed of (in mM): NaCl, 140; KCl, 4; CaCl2, 1.8; MgCl2, 1.2; Glucose, 11; HEPES, 5.5. pH was adjusted to 7.3 with NaOH. Osmolarity was adjusted to 310 mOsm with Sucrose.
Intracellular (Pipette) solution: Pipettes were pulled from borosilicate glass (Warner Instrument Corp, USA) with a resistance of 3-7 MΩ and were filled with internal solution composed of (in mM): KCl, 130; MgCl2, 1; K ATP, 5; EGTA, 5 (replaced by BAPTA in rat DRG neurons recordings); HEPES, 10. pH was adjusted to 7.3 with KOH. Osmolarity was adjusted to 290 mOsm with Sucrose.
A programmable valve-linked pressurized perfusion system (AutoMate Scientific) was used for local application of compounds nearby the cell recorded in a consistent flow rate of 2-3 ml/min. Series resistance was corrected and data were sampled at 5 kHz and low pass filtered at 2.4 kHz using MultiClamp 700B amplifier with pCLAMP11 software (Molecular Devices, USA). […]
The current obtained at −40 mV membrane potential when test compound is injected is divided by the averaged current at −40 mV, recorded before test-compound application and following its washout, to evaluate the drug/control response.

hTRPV1 = target: T2, hTRPV1 (Homo sapiens, UniProt Q8NER1); experiment: TRPV1 whole-cell electrophysiology, CHO cells expressing hTRPV1 alone; format: cell-based
T2 construct: CDS of NM_080704.4, inserted into the multiple cloning site of pcDNA3.1(+); host or cells: CHO/hKv7.2/3
T2 sequence (Q8NER1 whole entry): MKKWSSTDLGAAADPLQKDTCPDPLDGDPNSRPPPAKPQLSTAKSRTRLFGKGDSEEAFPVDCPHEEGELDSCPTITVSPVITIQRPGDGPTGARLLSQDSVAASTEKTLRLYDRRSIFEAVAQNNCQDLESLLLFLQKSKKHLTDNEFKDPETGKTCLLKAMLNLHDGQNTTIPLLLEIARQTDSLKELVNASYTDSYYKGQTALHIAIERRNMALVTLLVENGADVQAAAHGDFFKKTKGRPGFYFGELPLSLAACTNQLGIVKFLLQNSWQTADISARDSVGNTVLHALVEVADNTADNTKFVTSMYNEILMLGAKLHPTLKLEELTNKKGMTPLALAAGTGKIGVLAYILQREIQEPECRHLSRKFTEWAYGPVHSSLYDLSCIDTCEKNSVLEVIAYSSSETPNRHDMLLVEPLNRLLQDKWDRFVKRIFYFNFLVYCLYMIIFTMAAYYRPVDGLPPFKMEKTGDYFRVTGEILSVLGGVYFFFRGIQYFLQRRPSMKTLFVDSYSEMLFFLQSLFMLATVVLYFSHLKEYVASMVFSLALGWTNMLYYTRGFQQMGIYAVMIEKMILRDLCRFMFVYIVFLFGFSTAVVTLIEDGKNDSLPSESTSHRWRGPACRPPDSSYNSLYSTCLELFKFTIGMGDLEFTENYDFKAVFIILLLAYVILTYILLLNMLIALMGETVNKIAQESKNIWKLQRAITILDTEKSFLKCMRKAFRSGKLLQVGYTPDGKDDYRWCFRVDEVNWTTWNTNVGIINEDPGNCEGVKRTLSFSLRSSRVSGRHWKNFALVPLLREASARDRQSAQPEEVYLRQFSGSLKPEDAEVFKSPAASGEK
Excerpt: as §1
Intracellular (Pipette) solution: Pipettes were pulled from borosilicate glass (Warner Instrument Corp, USA) with a resistance of 3-7 MΩ and filled with internal solution composed of (in mM): KCl, 130; MgCl2, 1; K ATP, 5; EGTA, 5; HEPES, 10. pH was adjusted to 7.3 with KOH. Osmolarity was adjusted to 290 mOsm with Sucrose. A programmable valve-linked pressurized perfusion system was used to locally apply compounds nearby the cell recorded, in a consistent flow rate of 2-3 ml/min. Data were sampled at 5 kHz and low pass filtered at 2.4 kHz using MultiClamp 700B amplifier with pCLAMP11 software (Molecular Devices, USA).
[…]. A 3-minute time interval was set between sequential Capsaicin injections to allow its washout and cell recovery. All compounds are injected in the vicinity of the cells using the pressurized perfusion system.
The drug current response, when capsaicin (co-applied with test compound) is injected following >3 minutes of pre-incubation with the test compound, is divided by the averaged control currents, obtained when capsaicin is injection alone, before compound incubation and following its washout, to evaluate the drug/control response.

[1] = tested on: Post-operative Pain (POP) rats; experiment: Post-operative Pain model, thermal; format: in vivo, rat; conditions: 100 mg/kg, 6 hours post-dose
Procedure: All animal experiments were carried out according to the Guide for the Care and Use of Laboratory Animals (2011 edition) and approved by the Israel National Institutional Animal Care and Use Committee (IACUC). Young adult male SD rats (Envigo RMS, Israel), were used for in vivo efficacy: Spared Nerve Injury (SNI), Distal Tibial Injury (DTI) and Post-operative Pain (POP), 200-220 grams, Chronic Post-Ischemia Pain (CPIP) 275-325 grams, Monosodium iodoacetate-induced osteoarthritis (MIA-OA) 180-220 grams; for in vivo safety: 200-250 grams at study initiation. […] The health status of the animals used in this study was examined upon their arrival. Only animals in good health were acclimatized to laboratory conditions and were used in the studies. All studies were performed following at least five days of animal acclimation. […] Water was monitored periodically. […]
Post-operative Pain (POP): For this model, animals were anesthetized by medetomidine/ketamine sodium IP. […] On the following day, animal responses to von Frey (VF) filaments and hot-plate testing were recorded.
Hot Plate: Animals were placed on hot plate analgesia meter (IITC Life Science Inc., CA, USA) set to 53±1° C., and the time until the first escape response was observed was recorded. […]

OATP2B1 = OATP2B1 (Homo sapiens, UniProt O94956); experiment: Transporter substrate, OATP2B1; format: in vitro ADME; conditions: role: substrate
Sequence of OATP2B1 (O94956 whole entry): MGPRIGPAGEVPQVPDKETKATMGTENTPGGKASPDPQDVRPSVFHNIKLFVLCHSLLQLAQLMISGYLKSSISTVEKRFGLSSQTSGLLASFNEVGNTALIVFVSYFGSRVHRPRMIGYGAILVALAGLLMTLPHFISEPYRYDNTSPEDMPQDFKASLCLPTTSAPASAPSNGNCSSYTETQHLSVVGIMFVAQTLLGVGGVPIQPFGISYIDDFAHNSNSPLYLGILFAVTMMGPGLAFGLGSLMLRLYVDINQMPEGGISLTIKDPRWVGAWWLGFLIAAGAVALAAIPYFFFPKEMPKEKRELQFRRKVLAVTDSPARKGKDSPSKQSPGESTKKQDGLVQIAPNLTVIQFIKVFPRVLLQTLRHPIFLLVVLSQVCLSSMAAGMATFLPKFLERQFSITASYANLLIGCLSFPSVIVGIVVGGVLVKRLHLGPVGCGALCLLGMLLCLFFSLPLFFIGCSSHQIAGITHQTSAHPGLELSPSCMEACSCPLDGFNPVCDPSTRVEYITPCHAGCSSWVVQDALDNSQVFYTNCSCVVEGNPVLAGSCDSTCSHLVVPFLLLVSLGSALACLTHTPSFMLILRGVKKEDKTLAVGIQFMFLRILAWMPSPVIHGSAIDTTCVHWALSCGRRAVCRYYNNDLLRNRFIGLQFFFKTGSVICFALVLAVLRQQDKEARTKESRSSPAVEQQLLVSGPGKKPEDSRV
Procedure: (§2) Additionally, compound 760 was tested for its capability to act as a transporter substrate for various transporters, and was not found to be a transporter substrate for any of the tested transporters.

rats = experiment: Chronic 5-day BID exposure; format: in vivo, rat; conditions: up to 300 mg/kg BID, oral
Vasopressin 1-2 = experiment: Functional screening panel, Vasopressin 1-2; format: biochemical; conditions: up to 10 micromolar
Procedure: A broad panel of 78 recombinant targets was tested for pharmacologic activity in vitro through a variety of functional assays (Eurofins DiscoverX, USA), as part of the National Institute of Neurological Disorders and Stroke (NINDS) Preclinical Screening Platform for Pain (PSPP) program. The biological targets for the in vitro profiling have been selected based on avoiding opioid receptor stimulation and targets known to be associated with adverse events or targeted by drugs of abuse. […] For each test, a reference compound was evaluated at the target of interest as a positive control.

OAT3 = OAT3 (Homo sapiens, UniProt Q8TCC7); experiment: Transporter substrate, OAT3; format: in vitro ADME; conditions: role: substrate
Sequence of OAT3 (Q8TCC7 whole entry): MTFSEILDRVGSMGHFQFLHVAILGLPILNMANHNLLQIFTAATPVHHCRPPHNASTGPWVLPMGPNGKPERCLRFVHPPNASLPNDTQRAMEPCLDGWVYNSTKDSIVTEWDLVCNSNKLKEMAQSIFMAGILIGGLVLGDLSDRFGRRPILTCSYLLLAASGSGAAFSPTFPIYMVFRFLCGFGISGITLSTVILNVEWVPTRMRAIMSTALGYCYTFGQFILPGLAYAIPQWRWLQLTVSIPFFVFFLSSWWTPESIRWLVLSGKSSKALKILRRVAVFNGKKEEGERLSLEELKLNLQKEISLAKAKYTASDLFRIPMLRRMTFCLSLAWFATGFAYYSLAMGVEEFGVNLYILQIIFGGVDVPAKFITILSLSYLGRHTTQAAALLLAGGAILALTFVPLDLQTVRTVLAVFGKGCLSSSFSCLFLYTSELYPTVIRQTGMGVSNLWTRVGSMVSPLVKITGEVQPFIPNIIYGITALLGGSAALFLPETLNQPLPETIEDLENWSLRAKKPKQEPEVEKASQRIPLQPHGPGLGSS
Procedure: as §2

T1 sequence (O43525 whole entry): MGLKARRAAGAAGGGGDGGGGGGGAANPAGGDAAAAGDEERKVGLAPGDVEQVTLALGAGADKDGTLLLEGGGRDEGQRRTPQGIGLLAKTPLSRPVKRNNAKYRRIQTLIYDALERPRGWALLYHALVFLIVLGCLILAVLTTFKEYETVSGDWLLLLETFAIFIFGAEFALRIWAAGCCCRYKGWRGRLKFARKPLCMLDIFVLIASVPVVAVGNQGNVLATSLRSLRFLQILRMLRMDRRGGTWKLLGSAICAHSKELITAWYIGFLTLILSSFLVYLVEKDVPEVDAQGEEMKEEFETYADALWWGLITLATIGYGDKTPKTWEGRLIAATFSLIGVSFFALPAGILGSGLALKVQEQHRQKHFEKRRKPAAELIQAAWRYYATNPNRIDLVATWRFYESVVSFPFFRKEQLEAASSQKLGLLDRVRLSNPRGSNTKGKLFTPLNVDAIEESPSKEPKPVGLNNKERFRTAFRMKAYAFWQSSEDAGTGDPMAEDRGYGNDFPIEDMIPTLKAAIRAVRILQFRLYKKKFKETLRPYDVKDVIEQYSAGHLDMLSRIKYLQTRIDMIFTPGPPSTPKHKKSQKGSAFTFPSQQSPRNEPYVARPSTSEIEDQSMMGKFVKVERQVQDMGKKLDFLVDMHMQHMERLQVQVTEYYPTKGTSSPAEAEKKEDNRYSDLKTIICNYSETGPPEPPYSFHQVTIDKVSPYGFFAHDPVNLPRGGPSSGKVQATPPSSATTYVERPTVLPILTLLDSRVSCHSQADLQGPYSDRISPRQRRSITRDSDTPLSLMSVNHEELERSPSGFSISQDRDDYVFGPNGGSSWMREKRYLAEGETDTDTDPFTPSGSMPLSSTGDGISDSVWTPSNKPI
T1 sequence (O43526 whole entry): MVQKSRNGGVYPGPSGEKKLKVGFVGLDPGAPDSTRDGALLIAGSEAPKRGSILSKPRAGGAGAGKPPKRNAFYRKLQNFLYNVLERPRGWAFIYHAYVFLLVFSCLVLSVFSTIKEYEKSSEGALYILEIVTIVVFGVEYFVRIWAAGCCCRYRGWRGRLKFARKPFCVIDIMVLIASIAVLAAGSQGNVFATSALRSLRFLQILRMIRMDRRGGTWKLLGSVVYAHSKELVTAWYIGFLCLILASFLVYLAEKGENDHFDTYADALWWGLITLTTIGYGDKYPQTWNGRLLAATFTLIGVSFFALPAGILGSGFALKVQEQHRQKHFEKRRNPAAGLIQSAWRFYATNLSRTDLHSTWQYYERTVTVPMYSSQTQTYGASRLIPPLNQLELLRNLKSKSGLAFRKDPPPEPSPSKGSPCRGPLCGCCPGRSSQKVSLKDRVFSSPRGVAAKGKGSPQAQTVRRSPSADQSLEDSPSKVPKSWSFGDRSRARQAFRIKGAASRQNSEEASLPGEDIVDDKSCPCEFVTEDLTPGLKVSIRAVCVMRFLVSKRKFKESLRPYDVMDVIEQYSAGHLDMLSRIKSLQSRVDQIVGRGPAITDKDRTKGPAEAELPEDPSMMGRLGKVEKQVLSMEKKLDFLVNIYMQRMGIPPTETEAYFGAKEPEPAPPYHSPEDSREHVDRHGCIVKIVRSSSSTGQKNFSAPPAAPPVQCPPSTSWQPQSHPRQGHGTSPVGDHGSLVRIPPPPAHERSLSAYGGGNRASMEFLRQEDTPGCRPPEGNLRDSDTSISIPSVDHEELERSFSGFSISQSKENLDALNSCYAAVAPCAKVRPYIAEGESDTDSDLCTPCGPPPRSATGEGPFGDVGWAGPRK

In the case of `O=C(Cc1cc(-n2cc(Cl)c3cc(Cl)cc(Cl)c32)ccc1F)NCCO` [Compound 627], the activation at 0.1 µM (hKv7.2/3) is reported as 24.4 ± 10.4%, the IC50 (hTRPV1) is reported as 2000 nM and the “TRPV1 inhibition, hTRPV1 alone” value (hTRPV1; 1.3 μM) is reported as “partial TRPV1 inhibition”.
`O=C(Cc1cncc(-n2cc(Cl)c3cc(Cl)cc(Cl)c32)c1)N[C@@H]1COC[C@H]1O` [Compound 661] was tested, and the Thermal withdrawal latency [1] was “completely reversed”.
In the case of `O=C(Cc1nccc(-n2cc(Cl)c3cc(Cl)cc(Cl)c32)n1)NC1COCC1O` (centres unmarked) [Compound 760], the OATP2B1 substrate (OATP2B1) is reported as “not a transporter substrate”, the “Gross safety, 5-day BID” value (rats) is reported as “did not raise any gross safety concerns” and the “Effect on Vasopressin 1-2” value (Vasopressin 1-2) is reported as “no effect”. The OAT3 substrate (OAT3) was “not a transporter substrate”.
